Measurements from patent US5414144A, “Propylene glycol cyclohexyl ether derivatives, method of producing same and uses thereof” (Asahi Kasei Kogyo Kabushiki Kaisha, priority 1993, dated 1995).
Like-named read-outs stand apart in the source and are kept apart here.

Legend:
[1] = type: physicochemical
Protocol: The boiling point was determined from the temperature and pressure of the vapor at the top of the distillation column.

[2] = Flash point (JIS-K2265); type: physicochemical
[3] = for Solubility (In water) / Solubility (Water in): 20° C.; for Solubility (In water): solubility of the sample compound in water; for Solubility (In water) / solubility in water: 30 min; for Solubility (Water in): solubility of water in the sample compound; for solubility in water: Table 2
Protocol: (3) Solubility ("water in" and "in water")
10 g of a sample compound (liquid) was mixed with 10 g of water and then allowed to stand still for 30 minutes, so that the mixture was permitted to separate into a sample compound layer and an aqueous layer. Then, the water content of the sample compound layer was measured using a Karl Fischer moisture meter manufactured by Kyoto Electronics Co., Ltd., Japan, and the obtained value was taken as a solubility of water in the sample compound. The content of the sample compound in the aqueous layer was measured using GC and the obtained value was taken as a solubility of the sample compound in water.

[4] = Separability from water; type: physicochemical; conditions: result in words
Protocol: (6) Separability from Water
An equivolume mixture of a sample compound and water was vigorously shaken and then allowed to stand. After a period of 5 minutes, the degree of separation of the sample compound from water was judged by the naked eye.

[5] = background, result in words; cited from earlier work
[6] = Viscosity; type: physicochemical; conditions: 25° C.
Protocol: The viscosity was measured at 25° C. using a digital viscometer (Model DVL-B, manufactured by Toki Sangyo Co., Ltd., Japan).

[7] = Relative drying rate; type: physicochemical; conditions: 50° C., 20 minutes; relative to Elease M-9000
Protocol: (10) Relative Drying Rate
(§1) 10 g of a sample compound and 10 g of a glycol ether-type detergent (Elease M-9000, manufactured by Asahi Kasei Kogyo K.K., Japan) were individually placed in an oven and heated at 50° C. for 20 minutes. Then, a measurement was done with respect to the decrease in the weight of the sample compound as well as the decrease in the weight of Elease M-9000. The relative drying rate was calculated according to the following formula: [formula] (11) Oil Solubility Characteristics

[8] = Oil solubility characteristics; type: physicochemical; conditions: 100 g sample compound
Protocol: as §1
Each of the oils mentioned below was individually added to 100 g of a sample compound while stirring until a saturation of the sample compound with the oil was reached. The solubility (%) was expressed in terms of the percent expression of the weight of the oil dissolved in 100 g of the sample compound, with the dissolution of 100 g of the oil being taken as 100%. For example, when the amount of the oil dissolved was n g, the solubility was expressed as n %. The above-mentioned oils were: a mineral oil (Smoil PS-260, manufactured by Matsumura Sekiyu Kenkyusho, Japan), a drawing oil (Daphne Masterdraw 533WD, manufactured by Idemitsu Kosan Co., Ltd., Japan), a press oil (Uni Press DP-120, manufactured by Nippon Sekiyu Co., Ltd., Japan) and a rosin oil (sold by Kishida Kagaku Co., Ltd., Japan).

[9] = Overall comparison of properties in Table 2; conditions: Table 2 comparison in words
Protocol: Properties of the product were measured and results of the measurements are shown in Table 2, together with those of Example 1 for easy comparison.

Compound | Boiling point [1] | Flash point [2] | Solubility (In water) [3] | Solubility (Water in) [3] | also measured
CCCCCCOCCO [Comparative Example 1, Ethylene glycol mono-n-hexyl ether] | 208 °C | 82 °C | 1.0% | 18.8% | 
CCCCCCOCCOCCO [Comparative Example 2, Diethylene glycol mono-n-hexyl ether] |  | 140 °C |  |  | separability from water [4]: good
C=C(C)C1CC=C(C)CC1 (stereo not drawn) [Comparative Example 6, Limonene] |  | 45 °C |  |  | Flash point ([2]; result in words): low; separability from water [4]: good
CCCCOCCOCCO [Comparative Example 7, Diethylene glycol monobutyl ether] |  | 116 °C |  |  | separability from water [4]: poor; solubility in water [5]: disadvantageously high
CCOCCOCCOCC [Comparative Example 8, Diethylene glycol diethyl ether] |  | 72 °C |  |  | separability from water [4]: poor; solubility in water [5]: extremely high solubility in water; toxicity [5]: high toxicity
CC(O)COC1CCCCC1 (stereo not drawn) [Comparative Example 9, 1-cyclohexyloxy-2-propanol] | 208 °C | 88 °C |  |  | solubility in water [3]: 1%; viscosity [6]: 14 cP; Relative drying rate [7]: 36%; Oil solubility characteristics (Drawing oil) [8]: E (Less than 2%); Oil solubility characteristics (Mineral oil) [8]: A (50% or more); Oil solubility characteristics (Press oil) [8]: A (50% or more); Oil solubility characteristics (Rosin oil) [8]: C (10% to less than 20%); dissolving power for oils [5]: poor dissolving power for oils; drying rate [5]: low drying rate; solubility in water [5]: high solubility in water; viscosity [5]: high viscosity
COCC(C)OC1CCCCC1 (stereo not drawn) [Example 1, propylene glycol methyl cyclohexyl ether] | 175 °C | 73 °C | 0.3% | 1.4% | solubility in water [3]: 0.3%; viscosity [6]: 2.4 cP; Relative drying rate [7]: 77%; Oil solubility characteristics (Drawing oil) [8]: A (50% or more); Oil solubility characteristics (Mineral oil) [8]: A (50% or more); Oil solubility characteristics (Press oil) [8]: A (50% or more); Oil solubility characteristics (Rosin oil) [8]: A (50% or more); results vs Comparative Example 9 (relative drying rate, viscosity, solubility in water, oil solubility) [9]: very superior
CCOCC(C)OC1CCCCC1 (stereo not drawn) [Example 2, propylene glycol ethyl cyclohexyl ether] | 192 °C | 80 °C | 0.2% | 0.7% | 
COCC(C)OC1CCCCC1O (stereo not drawn) [Example 3, 2-hydroxycyclohexyloxymethoxypropane] |  |  | 2.7% | 11.7% | Boiling point ([1]; Measured at 5 mm/Hg): 93 °C
CCCCOCC(C)O (stereo not drawn) [compound 3, Propylene glycol mono-n-butyl ether] | 170 °C | 59 °C | 5.6% | 14.9% | 
COCC(C)OC(C)=O (stereo not drawn) [compound 4, Propylene glycol methyl ether acetate] | 146 °C | 47 °C | 3.0% | 19.0% | 
CCCCOCC(C)OCCCC (stereo not drawn) [compound 5, Propylene glycol di-n-butyl ether] | 190 °C | 69 °C | 2.0% | 0.6% | 
COCCOCCOC [diethylene glycol dimethyl ether] |  |  |  |  | solubility in water [5]: extremely high solubility in water; toxicity [5]: high toxicity
CCCCCCOCCOCCO [diethylene glycol monohexyl ether] |  |  |  |  | viscosity [5]: disadvantageously high viscosity
